Results as given in PubChem BioAssay (NCI).
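These data come from cells grown in 96-well plates and exposed to compound for 48 hours at five concentrations. GI50 = concentration required for 50% inhibition of growth. TGI: concentration producing complete growth inhibition.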 Where a SMILES comes first, the peptide text is derived from it. [ ]: non-standard residue; d: D form. The star is where a group is joined. Lauroyl = CCCCCCCCCCCC(=O)*; Aib = CC(C)(N)C(=O)O; βAla = NCCC(=O)O

Test system: MDA-MB-468 breast
Assay: growth of human tumour cells (NCI), 48 h

SMILES | GI50 [nM] | TGI [µM]
CCOC(=O)C1=CN(C)C=C(C(=O)OCC)C1c1cc(Br)c(OCC)c(OC)c1 | > 100000 | > 100
CCCCCCCCCCCC(=O)NC(C)(C)C(=O)N1CCCC1C(=O)NC(C)(C)C(=O)NC(C)(C)C(=O)N1CCCC1C(=O)NC(C)(C)C(=O)NC(C)(C)C(=O)N1CCCC1C(=O)NC(C)C(=O)NCCC(=O)NC(C)C(=O)NC(C)(C)C(=O)NC(C)(C)C(=O)NC(C)(C)C(=O)NCCC(=O)NC(C)(C)C(=O)NC(C)(C)C(=O)NC(C)(C)C(=O)NC(C)C(=O)NCCC(=O)O (stereo not drawn) (Lauroyl-[Aib]P[Aib][Aib]P[Aib][Aib]PA[βAla]A[Aib][Aib][Aib][βAla][Aib][Aib][Aib]A[βAla]-OH; configuration not given here) | 328 | 0.739
CCN1CCN(C(=O)[C@@]2(C)CC[C@]3(C)CC[C@]4(C)C(=CC(=O)[C@@H]5[C@@]6(C)CC[C@H](OC7C[C@@H](O)[C@@H](O)C(C)O7)C(C)(C)[C@@H]6CC[C@]54C)[C@@H]3C2)CC1 (stereo partly drawn) | 1490 | 6.17
COc1cccc(CC(C)=C(c2ccc(OCCN(C)C)cc2)c2ccc(OCCN(C)C)cc2)c1 | 1160 | 5.26
Cc1cc(Cl)cc(OCCn2cc(F)cn2)c1-c1nc(N)nc2c1CN(C(=O)NCC(C)(F)F)C2 | 36.1 | 3.13
CN1CCN(C2CCN(C(=O)Nc3cc(Oc4ccc(NC(=O)C5(C(=O)Nc6ccc(F)cc6)CC5)c(F)c4)ccn3)CC2)CC1 | 1030 | > 2.41
NC(=S)N/N=C/C(=O)O | 23900 | > 100
CC/C=C\C[C@H](O)C/C=C1/C(=O)C(Cl)=C[C@@H]1C/C=C\CCCC(=O)OC | 554 | 3.06
CCN(CC)CCC(CNc1ccnc2cc(Cl)ccc12)c1ccc(Cl)cc1 (stereo not drawn) | 413 | 1.52
Oc1ccc(Nc2ncnc3c2sc2ncccc23)cc1 | 75.1 | 21
Nc1nn2cc(F)cnc2c1C(=O)Nc1cncc(F)c1N1CCC(C(=O)N2CCN(C3COC3)CC2)CC1 | 165 | 0.682
CNCc1ccccc1-c1csc([C@@H](C)Nc2nc(C)nc3cc(OC)c(OC)cc23)c1 | 1100 | 2.59
O=C(Nc1ccc(Br)cc1F)c1cc(F)ccc1O | 1130 | 4.92
COc1ccc(OC)c2c1[nH]c(=O)c1c3ccccc3cn21 | 1080 | 2.55
CC1(C)N=C(N)N=C(N)N1c1ccc(CCCCc2ccc(Cl)cc2S(=O)(=O)F)c(Cl)c1 | 569 | 5.87
COc1cc(OCc2cccc(-c3ccc(C(O)c4nccs4)cc3)c2C)cc(OC)c1C=O (stereo not drawn) | 267 | 2.51
c1ccc(-c2nnc(-c3ccccn3)s2)nc1 | 9760 | > 100
C#CCOc1cccc(-c2ncc3cc(NC(=O)CCl)ccc3n2)c1 | 1740 | 3.55
C[N+](C)(C)CC1CCCc2ccccc2C1=O (stereo not drawn) | 1910 | 3.76
O=C(Nc1ccc(Nc2ccncc2)cc1)c1ccc([N+](=O)[O-])cc1 | 1750 | 5.2

SMILES | GI50 [nM] | TGI [µM]
CCCn1cnc2c(c1=N)C(c1ccc(Cl)cc1)c1sc3c(CC)cccc3c1O2 (stereo not drawn) | 508 | 4.14
NC(=O)/C=C/C(=O)c1c(Cl)cccc1Cl | 292 | 0.971
Cn1cc(C2=C(c3ccc(N)cc3)C(=O)NC2=O)c2ccccc21 | 7840 | > 25
Cn1c(I)c(C#CCO[Si](C)(C)C(C)(C)C)c(=O)[nH]c1=O | 1880 | 4.33
N#Cc1c(NC(=O)NCc2ccccc2)sc2c1CCCCC2 | 317 | 3.52
CC(=O)Nc1ccc(S(=O)(=O)N2C(=O)CCC2C(=O)Nc2ccc(Br)cc2)cc1 (stereo not drawn) | 1020 | 5.55
CC1(C)[C@@H](O)CC[C@]2(C)[C@H]3CC[C@@H]4[C@H]5[C@H](C(=O)/C=C\c6ccccn6)CC[C@]5(O)CC[C@@]4(C)[C@]3(C)CC[C@@H]12 | 1400 | 3.96
O=C(O)COc1ccc2c(=O)c3sc4c(=O)c5ccccc5c(=O)c4c3c(=O)c2c1 | 14900 | 35.4
Cc1ccc(SC2c3ccc(C)cc3Oc3nc(N)c(C#N)c(N)c32)cc1 (stereo not drawn) | 1770 | 3.74
COC(=O)c1ccc2c(c1)nc(NC(=O)c1ccccc1)n2CCCc1ccccc1 | 3050 | > 80
COc1cc(Nc2ncccc2C(=O)NCc2cn(Cc3cccc(Oc4ccccc4)c3)nn2)cc(OC)c1 | 2420 | 7.01
Nc1ccc([N+](=O)[O-])cc1N=C/C=C/c1ccccc1 | 4680 | 43
COc1cccc(F)c1C(=O)c1cnc(NC2CCN(S(C)(=O)=O)CC2)nc1N | 3750 | 9.91
COc1ccc(Sc2[nH]c(C(C)=O)c3ccccc23)cc1 | 3890 | 41.4
COc1ccccc1/C=N\N/C(N)=N\N=C\c1ccccc1OC | 613 | > 45.7
COc1ccc(/C=C\[N+](=O)[O-])cc1OC | 3050 | 11.3
COC(=O)C[C@](O)(CCCC(C)(C)O)C(=O)O[C@@H]1C(OC)=C[C@]23CCCN2CCc2cc4c(cc2[C@H]13)OCO4 | 10.2 | 0.0367
C=C(C=O)[C@@H]1CC[C@]2(CO)CC[C@]3(C)[C@H](CC[C@@H]4[C@@]5(C)CCCNC(C)(C)[C@@H]5CC[C@]43C)[C@@H]12 | 3770 | 16.5
Cc1cc(C)c2c(n1)sc1c(Nc3ccc(Cl)cc3)ncnc12 | 21.8 | 27
